# What was measured:
# P450 3A5 = P450 3A5 (Homo sapiens, UniProt P20815); assay: in vitro
# P450 3A4 = P450 3A4 (Homo sapiens, UniProt P08684); assay: in vitro
# Chain of P450 3A4 (P08684 2-503): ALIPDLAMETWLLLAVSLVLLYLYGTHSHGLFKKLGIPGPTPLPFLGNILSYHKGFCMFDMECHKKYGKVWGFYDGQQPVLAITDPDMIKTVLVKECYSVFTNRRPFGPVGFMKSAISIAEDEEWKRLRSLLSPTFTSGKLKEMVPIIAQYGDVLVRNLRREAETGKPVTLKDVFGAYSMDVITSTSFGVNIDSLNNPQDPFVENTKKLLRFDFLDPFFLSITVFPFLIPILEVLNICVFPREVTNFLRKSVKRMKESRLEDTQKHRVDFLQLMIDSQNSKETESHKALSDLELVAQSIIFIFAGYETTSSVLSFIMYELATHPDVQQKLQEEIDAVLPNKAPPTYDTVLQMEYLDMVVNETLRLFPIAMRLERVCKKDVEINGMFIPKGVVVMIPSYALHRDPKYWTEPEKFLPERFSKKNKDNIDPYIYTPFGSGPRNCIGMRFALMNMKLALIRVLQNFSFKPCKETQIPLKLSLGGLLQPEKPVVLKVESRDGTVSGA
# Chain of P450 3A4 (P16435 2-677 partner): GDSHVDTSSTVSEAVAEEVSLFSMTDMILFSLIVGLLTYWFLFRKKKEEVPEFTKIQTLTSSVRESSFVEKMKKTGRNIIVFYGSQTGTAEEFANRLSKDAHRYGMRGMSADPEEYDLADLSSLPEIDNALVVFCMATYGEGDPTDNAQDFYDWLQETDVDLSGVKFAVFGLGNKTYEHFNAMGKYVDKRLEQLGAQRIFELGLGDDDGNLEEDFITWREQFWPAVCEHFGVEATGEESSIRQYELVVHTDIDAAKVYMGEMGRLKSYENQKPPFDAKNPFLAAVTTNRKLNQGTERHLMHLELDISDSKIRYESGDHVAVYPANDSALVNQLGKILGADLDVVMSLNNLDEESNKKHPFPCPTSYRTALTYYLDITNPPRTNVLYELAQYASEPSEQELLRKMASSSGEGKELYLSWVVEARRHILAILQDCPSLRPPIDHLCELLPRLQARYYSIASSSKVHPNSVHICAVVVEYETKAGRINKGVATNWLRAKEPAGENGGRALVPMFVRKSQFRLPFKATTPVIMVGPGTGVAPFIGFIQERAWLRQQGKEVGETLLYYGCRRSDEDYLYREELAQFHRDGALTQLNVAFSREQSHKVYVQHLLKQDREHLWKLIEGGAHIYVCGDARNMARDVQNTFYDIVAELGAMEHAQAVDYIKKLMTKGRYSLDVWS
# Chain of P450 3A4 (P00167 2-134 partner): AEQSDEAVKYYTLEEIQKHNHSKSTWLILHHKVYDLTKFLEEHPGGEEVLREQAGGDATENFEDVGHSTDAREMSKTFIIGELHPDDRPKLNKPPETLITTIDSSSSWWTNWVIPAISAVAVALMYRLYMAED
# Chain of P450 3A5 (P20815 whole entry): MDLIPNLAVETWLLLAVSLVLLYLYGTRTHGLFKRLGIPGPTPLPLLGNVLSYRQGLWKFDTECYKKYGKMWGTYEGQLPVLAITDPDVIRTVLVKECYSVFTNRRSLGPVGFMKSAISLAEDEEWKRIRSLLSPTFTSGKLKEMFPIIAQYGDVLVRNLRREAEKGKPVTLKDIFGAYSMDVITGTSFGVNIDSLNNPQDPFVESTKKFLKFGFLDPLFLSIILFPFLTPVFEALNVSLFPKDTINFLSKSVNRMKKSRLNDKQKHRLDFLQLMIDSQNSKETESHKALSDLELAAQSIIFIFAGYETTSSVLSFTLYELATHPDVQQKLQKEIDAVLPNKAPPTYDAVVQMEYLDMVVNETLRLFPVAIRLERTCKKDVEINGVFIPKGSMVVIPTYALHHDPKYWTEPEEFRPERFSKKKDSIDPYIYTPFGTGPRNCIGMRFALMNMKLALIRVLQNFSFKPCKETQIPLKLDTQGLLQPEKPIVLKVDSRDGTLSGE
# Chain of P450 3A5 (P16435 2-677 partner): as the sequence (P16435 2-677 partner) above
# Chain of P450 3A5 (P00167 2-134 partner): as the sequence (P00167 2-134 partner) above
structure (smiles),measurement,setting,value
"CCC(=O)O[C@]1(C(=O)SCF)[C@H](C)C[C@H]2[C@@H]3C[C@H](F)C4=CC(=O)C=C[C@]4(C)[C@@]3(F)[C@@H](O)C[C@@]21C [FLT, fluticasone propionate]",KI (inactivation),P450 3A5,16 µM
same,KI (inactivation),P450 3A4,3.5 µM

# From PMC2924751 (Chemical research in toxicology, 2010)
